Measurements taken from patent publication US20220062243A1, “P14-Kinase Inhibitors with Anti-Cancer Activity” (The Board of Trustees of the Leland Stanford Junior …, priority 2019, published 2022).

Molecular target: PI4K-IIIβ (Homo sapiens, UniProt Q9UBF8)
Assay: PI-kinase assay (membrane capture assay for lipid kinase activity), PI4KIIIβ
Assay type: biochemical
Settings: read-out: PI4KIIIβ kinase activity (IC50 class)
Experimental: PI4-kinase inhibition can be determined by a kinase activity assay, e.g., by an assay that determines the level of incorporation of radiolabeled phosphate from [γ-^32P]-ATP into a substrate molecule after treatment with a subject compound, relative to a control, by measuring the beta-particle emission rate using a scintillation counter or phosphorimaging.
PI-kinase assay: Compounds are tested in C.1.1. PI kinase assays as described by Shokat et al., “A membrane capture assay for lipid kinase activity.” Nat. Protoc. […] Selected compounds of Table 1 and 2 were prepared and tested for inhibition activity in a variety of kinase assays.

Sequence of PI4K-IIIβ (Q9UBF8 whole entry): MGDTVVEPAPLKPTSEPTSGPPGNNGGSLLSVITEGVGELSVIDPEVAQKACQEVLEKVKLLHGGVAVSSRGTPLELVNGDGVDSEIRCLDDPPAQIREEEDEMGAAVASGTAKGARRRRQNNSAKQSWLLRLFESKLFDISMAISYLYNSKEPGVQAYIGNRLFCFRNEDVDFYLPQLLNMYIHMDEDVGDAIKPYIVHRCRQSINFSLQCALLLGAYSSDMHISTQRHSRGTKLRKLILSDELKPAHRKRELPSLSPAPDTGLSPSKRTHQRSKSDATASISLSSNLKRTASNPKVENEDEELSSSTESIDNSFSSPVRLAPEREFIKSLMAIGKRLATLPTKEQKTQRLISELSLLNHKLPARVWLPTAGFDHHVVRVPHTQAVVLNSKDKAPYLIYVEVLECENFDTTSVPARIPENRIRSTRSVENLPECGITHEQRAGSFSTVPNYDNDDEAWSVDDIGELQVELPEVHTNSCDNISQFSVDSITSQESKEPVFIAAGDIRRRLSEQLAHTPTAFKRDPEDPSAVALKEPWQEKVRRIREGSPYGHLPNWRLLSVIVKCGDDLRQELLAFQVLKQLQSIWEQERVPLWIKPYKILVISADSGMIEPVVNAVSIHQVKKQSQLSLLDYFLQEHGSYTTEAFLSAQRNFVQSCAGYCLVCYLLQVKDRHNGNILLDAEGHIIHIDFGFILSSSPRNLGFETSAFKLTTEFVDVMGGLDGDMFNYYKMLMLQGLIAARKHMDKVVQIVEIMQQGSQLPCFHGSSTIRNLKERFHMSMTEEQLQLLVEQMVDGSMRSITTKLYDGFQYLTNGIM

| Structure (SMILES) | IC50 [nM] |
| --- | --- |
| COc1ccc(-c2sc(NC(C)(C)C)nc2C)cc1S(=O)(=O)NC1CCCC(O)C1 (stereo not shown) [Compound S-218, 5-[2-(tert-butylamino)-4-methyl-thiazol-5-yl]-N-(3-hydroxycyclohexyl)-2-methoxy-benzenesulfonamide] | < 100 |
| COc1ccc(-c2sc(NC(C)(C)C)nc2C)cc1S(=O)(=O)NC1CCNCC1 [Compound S-219, 5-[2-(tert-butylamino)-4-methyl-thiazol-5-yl]-2-methoxy-N-(4-piperidyl)benzenesulfonamide] | < 100 |
| COc1ccc(-c2sc(NC(C)(C)C)nc2C)cc1S(=O)(=O)NC1CCCNC1 (stereo not shown) [Compound S-220, 5-[2-(tert-butylamino)-4-methyl-thiazol-5-yl]-2-methoxy-N-(3-piperidyl)benzenesulfonamide] | < 100 |
| COc1ccc(-c2sc(NCC(C)C)nc2C)cc1S(=O)(=O)N[C@H]1CC[C@H](O)CC1 [Compound S-221, N-(4-hydroxycyclohexyl)-5-[2-(isobutylamino)-4-methyl-thiazol-5-yl]-2-methoxy-benzenesulfonamide] | < 100 |
| COc1ccc(-c2sc(NCC(C)C)nc2C)cc1S(=O)(=O)N[C@H]1CC[C@@H](O)CC1 [Compound S-222, N-(4-hydroxycyclohexyl)-5-[2-(isobutylamino)-4-methyl-thiazol-5-yl]-2-methoxy-benzenesulfonamide] | < 100 |
| COc1ccc(-c2sc(NCC(C)C)nc2C)cc1S(=O)(=O)NC1CCCC(O)C1 (stereo not shown) [Compound S-223, N-(3-hydroxycyclohexyl)-5-[2-(isobutylamino)-4-methyl-thiazol-5-yl]-2-methoxy-benzenesulfonamide;2,2,2-trifluoroacetic acid] | < 100 |
| COc1ccc(-c2sc(NC(=O)CC3CCOCC3)nc2C)cc1S(=O)(=O)Nc1ccccc1F [Compound S-230, N-[5-[3-[(2-fluorophenyl)sulfamoyl]-4-methoxy-phenyl]-4-methyl-thiazol-2-yl]-2-tetrahydropyran-4-yl-acetamide] | < 100 |
| COc1ncc(-c2sc(NC(=O)CC3CCOCC3)nc2C)cc1S(=O)(=O)Nc1cccc(O)c1 [Compound S-259] | < 100 |
| COc1ncc(-c2sc(NC(=O)CC3CCOCC3)nc2C)cc1S(=O)(=O)Nc1ccc(F)cc1F [Compound S-260] | < 100 |

The remaining lines, values ahead:

| IC50 [nM] | Structure (SMILES) |
| --- | --- |
| < 100 | COc1ccc(-c2sc(NC(C)(C)C)nc2C)cc1S(=O)(=O)N[C@H]1CC[C@H](O)CC1 [Compound S-216, 5-[2-(tert-butylamino)-4-methyl-thiazol-5-yl]-N-(4-hydroxycyclohexyl)-2-methoxy-benzenesulfonamide] |
| < 100 | COc1ccc(-c2sc(NC(=O)CC3CCOCC3)nc2C)cc1S(=O)(=O)Nc1cccc(C)c1 [Compound S-226, N-[5-[4-methoxy-3-(m-tolylsulfamoyl)phenyl]-4-methyl-thiazol-2-yl]-2-tetrahydropyran-4-yl-acetamide] |
| < 100 | COc1ccc(-c2sc(NC(=O)CC3CCOCC3)nc2C)cc1S(=O)(=O)Nc1ccc(O)cc1 [Compound S-227, N-[5-[3-[(4-hydroxyphenyl)sulfamoyl]-4-methoxy-phenyl]-4-methyl-thiazol-2-yl]-2-tetrahydropyran-4-yl-acetamide] |
| < 100 | COc1ccc(-c2sc(NC(=O)CC3CCOCC3)nc2C)cc1S(=O)(=O)Nc1ccc(O)cc1C [Compound S-231, N-[5-[3-[(4-hydroxy-2-methyl-phenyl)sulfamoyl]-4-methoxy-phenyl]-4-methyl-thiazol-2-yl]-2-tetrahydropyran-4-yl-acetamide] |
| 1000 to 10000 | COc1ncc(-c2sc(NC(=O)CC3CCOCC3)nc2C)cc1S(=O)(=O)Nc1ccc(F)cc1F [Compound S-258] |
| < 100 | COc1ncc(-c2sc(NC(=O)CC3CCOCC3)nc2C)cc1S(=O)(=O)Nc1ccc(O)cc1 [Compound S-261] |
| < 100 | COc1ncc(-c2sc(NC(=O)CC3CCOCC3)nc2C)cc1S(=O)(=O)N[C@H]1CC[C@@H](O)CC1 [Compound S-262] |
| < 100 | COc1ncc(-c2sc(NC(=O)CC3CCOCC3)nc2C)cc1S(=O)(=O)NC1CCCC(O)C1 (stereo not shown) [Compound S-263] |
| < 100 | COc1ncc(-c2sc(NC(=O)CC3CCOCC3)nc2C)cc1S(=O)(=O)Nc1cccc(C(=O)O)c1 [Compound S-265] |

Molecular target: PI4KIIIα (Homo sapiens, UniProt P42356)
Sequence (P42356 whole entry): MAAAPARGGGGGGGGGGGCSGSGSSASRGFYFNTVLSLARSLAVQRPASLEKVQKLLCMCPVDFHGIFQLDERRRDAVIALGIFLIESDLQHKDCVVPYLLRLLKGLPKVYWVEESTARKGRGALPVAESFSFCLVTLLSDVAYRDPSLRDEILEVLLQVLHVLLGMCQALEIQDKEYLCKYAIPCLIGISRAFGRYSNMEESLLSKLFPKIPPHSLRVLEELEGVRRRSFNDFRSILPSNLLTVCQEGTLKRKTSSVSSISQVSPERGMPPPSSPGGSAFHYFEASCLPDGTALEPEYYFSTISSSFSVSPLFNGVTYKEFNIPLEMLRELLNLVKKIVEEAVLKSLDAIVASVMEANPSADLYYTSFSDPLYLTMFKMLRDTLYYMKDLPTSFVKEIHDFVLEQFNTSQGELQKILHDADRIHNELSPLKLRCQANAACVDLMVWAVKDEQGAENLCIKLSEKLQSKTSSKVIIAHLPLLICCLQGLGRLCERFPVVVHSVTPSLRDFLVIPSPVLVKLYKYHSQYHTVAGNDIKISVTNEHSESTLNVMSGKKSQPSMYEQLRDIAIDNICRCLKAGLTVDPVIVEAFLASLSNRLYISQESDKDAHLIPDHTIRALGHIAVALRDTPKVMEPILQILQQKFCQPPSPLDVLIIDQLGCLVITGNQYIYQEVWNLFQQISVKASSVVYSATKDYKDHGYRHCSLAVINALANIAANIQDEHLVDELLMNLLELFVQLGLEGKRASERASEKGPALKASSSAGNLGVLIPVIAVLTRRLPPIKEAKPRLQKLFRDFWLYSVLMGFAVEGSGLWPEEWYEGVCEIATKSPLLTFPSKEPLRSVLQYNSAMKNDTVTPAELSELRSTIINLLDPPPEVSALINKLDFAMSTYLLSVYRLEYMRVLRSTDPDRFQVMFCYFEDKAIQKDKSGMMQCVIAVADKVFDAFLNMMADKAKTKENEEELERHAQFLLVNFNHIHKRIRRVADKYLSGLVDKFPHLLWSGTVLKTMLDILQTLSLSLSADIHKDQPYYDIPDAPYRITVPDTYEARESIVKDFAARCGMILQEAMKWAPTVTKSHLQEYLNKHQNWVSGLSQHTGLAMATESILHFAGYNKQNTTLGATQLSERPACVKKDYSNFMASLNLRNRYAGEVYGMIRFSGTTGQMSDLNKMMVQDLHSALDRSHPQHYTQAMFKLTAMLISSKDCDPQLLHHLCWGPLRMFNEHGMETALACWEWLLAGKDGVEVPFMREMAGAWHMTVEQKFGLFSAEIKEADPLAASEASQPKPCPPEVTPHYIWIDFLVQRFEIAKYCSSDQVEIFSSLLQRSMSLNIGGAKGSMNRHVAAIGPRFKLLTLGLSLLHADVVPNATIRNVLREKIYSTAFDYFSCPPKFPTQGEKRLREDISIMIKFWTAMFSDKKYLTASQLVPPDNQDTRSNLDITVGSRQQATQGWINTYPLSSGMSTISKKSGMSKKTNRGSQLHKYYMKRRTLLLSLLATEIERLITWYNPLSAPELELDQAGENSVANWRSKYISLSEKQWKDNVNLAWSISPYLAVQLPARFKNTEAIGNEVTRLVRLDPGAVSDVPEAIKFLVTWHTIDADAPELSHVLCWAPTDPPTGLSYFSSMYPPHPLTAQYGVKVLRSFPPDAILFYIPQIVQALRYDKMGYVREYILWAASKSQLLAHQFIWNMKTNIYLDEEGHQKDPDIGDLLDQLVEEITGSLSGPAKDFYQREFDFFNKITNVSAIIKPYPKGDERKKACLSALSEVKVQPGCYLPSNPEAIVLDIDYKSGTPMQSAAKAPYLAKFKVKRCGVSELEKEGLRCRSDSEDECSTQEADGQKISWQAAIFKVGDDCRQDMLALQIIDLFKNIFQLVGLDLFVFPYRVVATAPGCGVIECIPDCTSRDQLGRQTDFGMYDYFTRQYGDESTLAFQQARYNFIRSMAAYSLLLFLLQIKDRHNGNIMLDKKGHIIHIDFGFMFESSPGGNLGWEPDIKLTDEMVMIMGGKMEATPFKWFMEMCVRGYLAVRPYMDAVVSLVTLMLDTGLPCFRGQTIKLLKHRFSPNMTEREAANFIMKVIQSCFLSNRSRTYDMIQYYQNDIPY
Assay: not given
Settings: weak inhibition; cited from earlier work

| Structure (SMILES) | IC50 [nM] |
| --- | --- |
| COc1ccc(-c2sc(NC(=O)C(C)(C)C)nc2C)cc1S(=O)(=O)Nc1ccc(O)cc1 [PI4KIIIbeta-IN-10] | ~3000 |
